Patent US5221625A, “Cyclcic FR-900520 microbial biotransformation agent” (Merck & Co., Inc., priority 1992, dated 1993)

Tests used:
[1] = reputed; vs cyclosporin; cited from earlier work
[2] = tested on: mouse T lymphocytes (splenic T-cells); assay: T-cell proliferation assay (ionomycin plus PMA induced, tritiated thymidine uptake); assay type: cell-based, mouse (C57Bl/6)
Method: The principle of this assay is to measure the proliferation of mouse T lumphocytes stimulated with the combination of ionomycin plus PMA.
Cells were pelleted by centrifugation at 1500 rpm for 8 minutes. Contaminating red cells were removed by treating the pellet with ammonium chloride lysing buffer (GIBCO) for 2 minutes at 4° C. Cold medium was added and cells were again centrifuged at 1500 rpm for 8 minutes. T lumphocytes were then isolated by separation of the cell suspension on nylon wool columns as follows: Nylon wool columns were prepared by packing approximately 4 grams of washed and dried nylon wool into 20 ml plastic syringes. The columns were sterilized by autoclaving at 250° F. for 30 minutes. Nylon wool columns were wetted with warm (37° C.) culture medium and rinsed with the same medium. Washed spleen cells resuspended in warm medium were slowly applied to the nylon wool. The columns were then incubated in an upright position at 37° C. for 1 hours. […]
The cell suspension was immediately distributed into 96 well flat-bottom microculture plates (Costar) at 200 μl/well. […] Radioactivity of filter discs corresponding to individual wells was measured by standard liquid scintillation counting method (Betacounter). Mean counts per minute of replicate wells were calculated and the results expressed as percent inhibition of tritiated thymidine uptake (proliferation) as follows: [formula]

[3] = tested on: FK-506 immunosuppressive activity; assay: antagonist activity versus the FK-506 immunosuppressive activity by the T-cell proliferation assay; assay type: cell-based; conditions: qualitative

Compound | effectiveness relative to cyclosporin [1] [times] | reversal of inhibition of T-cell proliferation by IL2 ([2]; 50 units/ml recombinant IL2 added at initiation of culture) | inhibition of T-cell activation ([2]; ionomycin + PMA, qualitative) | antagonist activity versus FK-506 immunosuppressive activity [3]
C=CC[C@@H]1/C=C(\C)C[C@H](C)C[C@H](OC)[C@H]2O[C@@](O)(C(=O)C(=O)N3CCCC[C@H]3C(=O)O[C@H](/C(C)=C/[C@@H]3CC[C@@H](O)[C@H](OC)C3)[C@H](C)[C@@H](O)CC1=O)[C@H](C)C[C@@H]2OC [FR900506] | 100 |  |  | 
CC[C@@H]1C=C2COC1(O)C[C@H](O)[C@@H](C)[C@@H](/C(C)=C/[C@@H]1CC[C@@H](O)[C@H](OC)C1)OC(=O)[C@@H]1CCCCN1C(=O)C(=O)[C@]1(O)O[C@H]([C@@H](OC)C[C@@H](C)C2)[C@@H](OC)C[C@H]1C [Compound I] |  | reversed | positive inhibition of T-cell activation | antagonist pharmacological activity
